Measurements from patent USRE35281E, “Tetrazole derivatives and aldose reductase inhibition therewith” (Wakamoto Pharmaceutical Co., Ltd., priority 1989, dated 1996).

Columns and labels:
aldose reductase [1] = target: T1, aldose reductase (Rattus norvegicus, UniProt P07943); experiment: Aldose reductase inhibition, IC50 determination (Experiment 2); assay type: biochemical, rat (male SD rat crystalline lens); details: calculated from inhibitions at three final concentrations; DL-glycerine aldehyde 10 mM, pH 6.2, 30° C.
T1 construct: their crystalline lenses were immediately removed and stored at -80° C; The lenses were homogenized; from tissue; host or cells: crystalline lens of six-week-old male SD rats (homogenate supernatant, dialysed)
Protocol: Six-week-old male SD rats were killed under ether anesthesia and their crystalline lenses were immediately removed and stored at -80° C. […] The supernatant was dialyzed overnight against 0.05M sodium chloride, to produce an aldose reductase solution. All operations were conducted at 4° C. The enzyme solution was stored at -80° C.
(§1) Namely, 0.1 ml of DL-glycerine aldehyde (final concentration: 10 mM) was added to 0.9 ml of 100 mM sodium potassium phosphate buffer (pH 6.2) which contained lithium sulfate (final concentration: 400 mM), reduced nicotinamide adenine dinucleotide phosphate (final concentration: 0.15 mM), the enzyme solution, and the compound to be tested (final concentration: 5×10^-5 M or 10^-6 M), and then the reaction was conducted at 30° C. for 5 min. […] The maximum reducing rate of the absorbance (U) during the reaction was determined. By substracting, from this value, the maximum reducing rate (Uo) at 340 nm of the reaction solution before the addition of the substrate (DL-glycerine aldehyde), the reaction rate (V) (V=U-Uo) was calculated as a true reaction rate in the presence of the compound to be tested.
(§2) The same procedure was repeated except for the absence of the compound to be tested. A true reaction rate (Vo) in case the enzyme was not inhibited was calculated (Vo =U'-Uo '). The inhibitory activity of aldose reductase was determined by the following formula. [formula]
In the same manner as Experiment 1, the inhibitions at final concentrations of 10^-6, 10^-7 and […] for the compound to be tested were calculated.

aldose reductase [2] = target: T1, aldose reductase; experiment: Aldose Reductase Inhibition Test (Experiment 1); assay type: biochemical, rat (male SD rat crystalline lens); details: DL-glycerine aldehyde 10 mM, pH 6.2, 30° C., 5 min; for inhibition at 1 µM: *Concentration of 10^-6 M; for inhibition at 50 µM: final concentration 5×10^-5 M (values without asterisk)
Protocol: Six-week-old male SD rats were killed under ether anesthesia and their crystalline lenses were immediately removed and stored at -80° C. The lenses were homogenized in 3 volumes of 135 mM sodium potassium phosphate buffer (pH: 7.0) and centrifuged at a rate of 30,000 rpm for 30 min. The supernatant was dialyzed overnight against 0.05M sodium chloride, to produce an aldose reductase solution. All operations were conducted at 4° C. The enzyme solution was stored at -80° C.
as §1, with “The activity of aldose reductase was determined according to a slight modification of the method of J. H. Kinoshita et al [J. Biol. Chem., 240, 877 (1965)]. Namely,” for “Namely,”
as §2

[3] = Acute toxicity test, oral (Experiment 3); details: mouse, in vivo, suspended in 0.5% sodium carboxymethyl cellulose, male MCH mice, 14 days observation
From the text: The compound listed in Table 7 and suspended in 0.5% sodium carboxymethyl cellulose was orally administered to male MCH mice (6 weeks old: 5 animals per test group).
During the test, the mice were able to take food and water freely.

IC50 (aldose reductase [1]) [nM]	inhibition at 1 µM (aldose reductase [2]) [%]	SMILES	LD50 at 336 h [3] [mg/kg]	inhibition at 50 µM (aldose reductase [2]) [%]
20		O=C(O)Cn1nnnc1-c1ccc(CBr)cc1 [Compound 3-41, 5-(4-Bromomethylphenyl)-1-tetrazoleacetic acid]		
43		O=C(O)Cn1nnnc1-c1ccc(O)cc1 [Compound 3-31, 5-(4-Hydroxyphenyl)-1-tetrazoleacetic acid]		
28	94	O=C(O)Cn1nnnc1-c1ccc(Oc2ccccc2)cc1 [Compound 3-25, 5-(4-Phenoxyphenyl)-1-tetrazoteacetic acid]		
37		CSc1ccc(-c2nnnn2CC(=O)O)cc1 [Compound 3-42, 5-(4-Methylthiophenyl)-1-tetrazoleacetic acid]		
17	96	CCCCCCCc1ccc(-c2nnnn2CC(=O)O)cc1 [Compound 3-24, 5-(4-n-Heptylphenyl)-1-tetrazoleacetic acid]		
27	94	CC(C)(C)c1ccc(-c2nnnn2CC(=O)O)cc1 [Compound 3-26, 5-(4-t-Butylphenyl)-1-tetrazoleacetic acid]		
54		O=C(O)Cn1nnnc1-c1ccc(C(=O)N2CCCCC2)cc1 [Compound 3-38, 5-(4-Piperidinocarbonylphenyl)-1-tetrazoleacetic acid]		
82		O=C(O)Cn1nnnc1-c1ccc(C(=O)O)cc1 [Compound 3-37, 5-(4-Carboxyphenyl)-1-tetrazoleacetic acid]		
63		COc1ccc(-c2nnnn2CC(=O)O)cc1OC [Compound 3-34, 5-(3,4-Dimethoxyphenyl)-1-tetrazoleacetic acid]		
28		COc1cccc(-c2nnnn2CC(=O)O)c1 [Compound 3-33, 5-(3-Methoxyphenyl)-1-tetrazoteacetic acid]		
78		CCCCNS(=O)(=O)c1ccc(-c2nnnn2CC(=O)O)cc1 [Compound 3-45, 5-(4-n-Butylaminosulfonylphenyl)-1-tetrazoleacetic acid]		
73		CCCN(CCC)C(=O)c1ccc(-c2nnnn2CC(=O)O)cc1 [Compound 3-39, 5-(4-Di-n-propylaminocarbonylphenyl)-1-tetrazoleacetic acid]		
41		Nc1ccc(-c2nnnn2CC(=O)O)cc1 [Compound 3-40, 5-(4-Aminophenyl)-1-tetrazoleacetic acid]		

The remaining lines, values behind:

SMILES	IC50 (aldose reductase [1]) [nM]	inhibition at 1 µM (aldose reductase [2]) [%]	LD50 at 336 h [3] [mg/kg]	inhibition at 50 µM (aldose reductase [2]) [%]
COc1ccc(-c2nnnn2CC(=O)O)cc1 [Compound 3-7, 5-(4-Methoxyphenyl)-1-tetrazoleacetic acid]	48	95		
O=C(O)Cn1nnnc1-c1ccc(F)cc1 [Compound 3-3, 5-(4-Fluorophenyl)-1-tetrazoleacetic acid]	42	94		
O=C(O)Cn1nnnc1-c1cccc(NC(=O)C(=O)O)c1 [Compound 3-12, 3'-(1-Carboxymethyl-tetrazol-5-yl)oxanilic acid]	31		> 3000	97
Cc1ccc(-c2nnnn2CC(=O)O)cc1[N+](=O)[O-] [Compound 3-11, 5-(3-Nitro-4-methylphenyl)-1-tetrazoleacetic acid]	42	92		
CCCCCCCOc1ccc(-c2nnnn2CC(=O)O)cc1 [Compound 3-32, 5-(4-n-Heptoxyphenyl)-1-tetrazoleacetic acid]	29			
COC(=O)Cn1nnnc1-c1ccc(C)cc1 [Compound 1-7, Methyl 5-(4-methylphenyl)-1-tetrazoleacetate]			> 3000	59
O=C(O)Cn1nnnc1-c1ccc(-c2nnnn2CC(=O)O)cc1 [Compound 3-13, 1,4-Bis(1-carboxymethyl-tetrazol-5-yl)benzene]	27			94
CCCCOc1ccc(-c2nnnn2CC(=O)O)cc1OCCCC [Compound 3-35, 5-(3,4-Di-n-butoxyphenyl)-1-tetrazoleacetic acid]	33			
O=C(O)Cn1nnnc1-c1ccc(-c2ccccc2)cc1 [Compound 3-23, 5-(4-Biphenylyl)-1-tetrazoleacetic acid]	22	95		
Cc1cccc(-c2nnnn2CC(=O)O)c1 [Compound 3-5, 5-(3-Methylphenyl)-1-tetrazoleacetic acid]	33	96		
O=C(O)Cn1nnnc1-c1ccccc1 [Compound 3-1, 5-Phenyl-1-tetrazoleacetic acid]	32	97	> 3000	
CCCCOc1ccc(-c2nnnn2CC(=O)O)cc1 [Compound 3-27, 5-(4-n-Butoxyphenyl)-1-tetrazoleacetic acid]	18	96		
CCCCc1ccc(-c2nnnn2CC(=O)O)cc1 [Compound 3-14, 5-(4-n-Butylphenyl)-1-tetrazoleacetic acid]	17			
Cc1ccc(-c2nnnn2CC(=O)O)cc1 [Compound 3-6, 5-(4-Methylphenyl)-1-tetrazoleacetic acid]	25	98	> 3000	
